According to patent publication US8541373B2, “BChE albumin fusions for the treatment of cocaine abuse” (priority 2009, dated 2013):

System: cocaine self-administration
Assay: Cocaine self-administration
Assay type: in vivo, squirrel monkeys (Saimiri sciureus)
Text: Adult male squirrel monkeys (Saimiri sciureus) weighing 0.8 to 1.2 kg were used as subjects. All monkeys were individually housed in a humidity and temperature controlled room and had free access to water. The monkeys were fed following any experimental procedures an amount of food (Lab Diet 5045, PMI Nutrition International, Richmond, Ind.; Banana Softies, Bio-Serv, Frenchtown, N.J.) determined to maintain a stable weight. Fresh fruit, vegetables and environmental enrichment were also provided daily. The animal care facilities were fully accredited by AAALAC and all experiments were approved by the NIDA Intramural Research Program Animal Care and Use Committee.
Three monkeys were trained to self-administer 30 μg/kg/inj i.v. cocaine. Details of the self-administration training procedure can be found elsewhere (Justinova et al., 2003). In brief, the monkeys were placed in a seated position in a Plexiglas restraint chair. The chair was enclosed in a larger acoustical chamber. On the front wall of the restraint chair there was a response lever and stimulus lights. A green light signaled the beginning of the session. The monkeys were trained to make 10 responses (fixed-ratio, FR, 10) to receive an i.v. injection of cocaine. The injection of cocaine was accompanied by the green light, turning off and a yellow stimulus light being presented for 2 sec. Following each cocaine injection there was also a 60-sec timeout. At the end of the timeout, the green light was turned on. Sessions lasted for 1 hour. Occasionally, saline was substituted for cocaine. Following the establishment of stable cocaine self-administration and reliable extinction of responding following saline substitution, AlbuBChE (5 mg/kg, i.m.) or its vehicle (i.m.) were given 2 hours prior to a self-administration session. Self-administration responding was then measured for 5 consecutive days. Following each drug test or saline substitution, responding for 30 μg/kg/inj cocaine was reestablished for at least 5 days. Following reinstatement testing (see below), the dose of cocaine available for self-administration was lowered to 10 μg/kg/inj and the effect of AlbuBChE (5 mg/kg, i.m.) was again determined.
The blood level data were analyzed separately for each metabolite and time point (5 or 30 min). […] The self-administration data were analyzed separately for response rate or injections following either vehicle treatment or AlbuBChE treatment. Control data were included in the analysis by taking the average of the last 3 days for the immediately preceding baseline condition. A within subjects ANOVA was then performed with follow-up tests contrasting days following vehicle or AlbuBChE with the control. For the reinstatement tests, a two-way ANOVA was performed for both response rate and injections, with time post vehicle or AlbuBChE as the within-subjects factor and pretreatment (vehicle or AlbuBChE) as the between subjects factor. Follow-up contrast compared vehicle and AlbuBChE at each time point.

[1] = 5 mg/kg i.m., 30 μg/kg/inj cocaine, tracked 5 days

AlbuBChE
Duration of effect on cocaine self-administration (30 μg/kg/inj cocaine, reduced effectiveness): ≥ 3 days
Cocaine self-administration (5 mg/kg i.m., 30 μg/kg/inj cocaine): reduced self-administration
Self-administration injections vs baseline [1]: significantly different from control on day 1 and 4
Self-administration response rate vs baseline [1]: different from control on days 1-4
Self-administration response rate and injections (5 mg/kg, 10 μg/kg/inj cocaine, 2 hrs following AlbuBChE): failed to reach significance
